In US20130203805A1, “Methods for treating anemia using inhibitors of hypoxia-inducible factor (HIF) hydroxylase” (FIBROGEN, INC., priority 2001, published 2013):

Tests used:
[1] = assay type: in vivo, Sprague Dawley male rats
Method: The ability of a compound of the invention to treat anemia associated with post-ischemic acute renal failure was assayed using a procedure described by Vaziri et al. (1994, Am J Physiol 266(3 Pt 2):[…]-6.) Fifteen Sprague Dawley male rats (280-300 g) were obtained from Charles River Laboratories. On day 0, rats were treated by intraperitoneal injection with a single dose of saline (control; n=3) at 8 ml/kg, or cisplatin (CP; Bedford Laboratories, Bedford Ohio) at either 7 mg/kg (7 ml/kg; n=6) or 10 mg/kg (10 ml/kg; n=6). Blood samples (0.2 ml) were collected on days 5, 9, and 16 as follows. […] Blood samples were processed for hematocrit as described above to determine the degree of anemia produced in each animal. […] Blood samples (0.5 ml) were collected as described above immediately prior to treatment and 4 days after treatment initiation. Blood samples were analyzed for CBC and reticulocyte counts as described above. On day 9 after initiation of oral treatment, a blood sample (0.1 ml) was collected and processed for hematocrit as described above.

erythropoietin = test: Erythropoietin production following bilateral nephrectomy: serum erythropoietin (Example 8); assay type: in vivo; details: rats, 100 or 150 mg/kg oral gavage at 2 and 20 hours post-surgery, blood at 24 hours, FIG. 7
Method: The ability of a compound of the invention to induce endogenous erythropoietin production in the absence of functioning kidney was assayed using a procedure described by Jacobson et al, (1957, Nature 179:633-634.) Briefly, rats were anesthetized under isoflurane and a midline abdominal incision was made under sterile conditions. The kidney capsules were peeled off, the pedicles were ligated, and both kidneys were removed. The abdomen was then closed and the animal was allowed to recover.
Animals were treated by oral gavage at 2 and 20 hours post-surgery with either 0.5% carboxymethyl cellulose (CMC; Sigma-Aldrich, St. Louis Mo.) or with compound C at 100 or 150 mg/kg. Blood samples (0.6 ml) were collected at 24 hours as follows. Animals were anesthetized with isoflurane and blood was collected from the tail vein into a MICROTAINER EDTA-2K tube (Becton-Dickinson). Blood samples were processed for erythropoietin levels and hematocrit as described in Example 2. Complete Blood Count (CBC) analysis, including blood hemoglobin level, reticulocyte number, and hematocrit, was performed by IDEXX veterinary service (W. Sacramento, Calif.).

For `O=C(O)CNC(=O)c1nc(Cl)c2ccccc2c1O` [Compound C, [(1-chloro-4-hydroxy-isoquinoline-3-carbonyl)-amino]-acetic acid], the “hematocrit levels versus normal control” value ([1]; rats initially exposed to 7 mg/kg CP, 2 ml/kg of 2.5% compound C oral once daily 5 days, day 9, FIG. 5A) was “at or above normal control values”, the “number of circulating reticulocytes” value ([1]; rats, CP-treated, 2 ml/kg of 2.5% compound C oral once daily 5 days, FIG. 5B) was “also increased” and the “hematocrit versus non-treated counterparts” value ([1]; rats, CP-treated, 2 ml/kg of 2.5% compound C oral once daily 5 days, day 9 post-treatment, FIG. 5A) was “significantly higher”. The “hematocrit in CP-treated animals” value ([1]; rats, 2 ml/kg of 2.5% compound C oral once daily 5 days from day 19, 4 days after initiating treatment, FIG. 5A) was “increased”, the “serum erythropoietin levels, sham-operated animals” value (erythropoietin) was “significantly increased” and the “serum erythropoietin levels, bilaterally nephrectomized animals” value (erythropoietin; relative to untreated BN and sham controls) was “noticably increased”.
